In this assay the test system is Pentylenetetrazol (PTZ)-induced epileptic seizures in rats. In words: Pentylenetetrazol (PTZ)-induced epileptic seizures, Racine grading, Midazolam IV vs SipNose. It counts as in vivo, rat. How it is done:
In this example, epileptic seizures were induced in rats by administration of 47.5-50 mg/kg of Pentylenetetrazol (PTZ) for 5 min before the start of treatment with Midazolam. The Midazolam was administered either via IV or using a SipNose device, via the nasal passages. There were two dosing levels, 0.6 mg/kg (FIG. 78) and 6 mg/kg (FIG. 79).
In all cases, the Racine grading standard was used to determine the severity of the seizures. PZT was at t=−5 min, the start of treatment was at time t=0.
Treatment consisted of saline (control, diamonds), Midazolam administered by IV (triangles) or Midazolam administered nasally by a SipNose device (squares).

Where only a bound is given, the exact number is not on record here.

The text below walks through data of US11278682B2, “Device and method for aerosolized delivery of substance to a natural orifice of the body” (SIPNOSE LTD., priority 2014, dated 2022).

With `Cc1ncc2n1-c1ccc(Cl)cc1C(c1ccccc1F)=NC2` [Midazolam], the Racine seizure severity entry runs as follows: (0.6 mg/kg Midazolam nasally by SipNose, about t=10 min to t=60 min) “zero, no seizures were seen”; (6 mg/kg Midazolam IV) under 0.5; (6 mg/kg Midazolam nasally by SipNose) under 0.5.
